Measurements: PubChem BioAssay (NCI)
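Cells were grown in 96-well plates and exposed to each compound for 48 hours at five concentrations; endpoints were interpolated linearly between bracketing concentrations, or set to the highest concentration if not reached. GI50 is the concentration that inhibits growth by half. Definition used: TGI = concentration required for complete inhibition of growth.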

Tests used:
Assay in all cases: DTP human tumour cell line panel, 48 h
[1] = system: IGROV1 ovarian
[2] = system: ACHN renal
[3] = system: LOX IMVI melanoma
[4] = system: RPMI-8226 leukemia
[5] = system: HCT-116 colon
[6] = system: A549 NSCLC
[7] = system: SN12C renal
[8] = system: SK-OV-3 ovarian
[9] = system: HS 578T breast
[10] = system: UACC-257 melanoma
[11] = system: SF-268 CNS
[12] = system: HOP-62 NSCLC
[13] = system: SR leukemia
[14] = system: NCI/ADR-RES ovarian
[15] = system: MOLT-4 leukemia
[16] = system: MCF7 breast
[17] = system: PC-3 prostate
[18] = system: MDA-MB-435
[19] = system: CAKI-1 renal
[20] = system: SNB-75 CNS
[21] = system: SNB-19 CNS
[22] = system: SF-539 CNS
[23] = system: OVCAR-3 ovarian
[24] = system: NCI-H522 lung
[25] = system: T-47D breast
[26] = system: OVCAR-4 ovarian
[27] = system: MDA-MB-231 breast
[28] = system: MALME-3M melanoma
[29] = system: M14 melanoma
[30] = system: 786-0 renal
[31] = system: SF-295 CNS
[32] = system: NCI-H460 lung
[33] = system: SK-MEL-5 melanoma
[34] = system: SK-MEL-28 melanoma
[35] = system: OVCAR-5 ovarian
[36] = system: NCI-H226 lung
[37] = system: EKVX NSCLC
[38] = system: COLO 205 colon
[39] = system: HL-60(TB) leukemia
[40] = system: UACC-62 melanoma
[41] = system: HT29 colon
[42] = system: OVCAR-8 ovarian
[43] = system: K-562 leukemia
[44] = system: UO-31 renal
[45] = system: KM12 colon
[46] = system: SK-MEL-2 melanoma
[47] = system: TK-10 renal
[48] = system: BT-549 breast
[49] = system: NCI-H23 lung
[50] = system: CCRF-CEM leukemia
[51] = system: HCT-15 colon
[52] = system: DU-145 prostate
[53] = system: U251 CNS
[54] = system: SW-620 colon
[55] = system: A498 renal

COc1ccc(OC)c(-c2nc3sc(C)cn3c2/C=C2\C(=O)N(C)c3ccccc32)c1
GI50 [1]: 22 µM
TGI [1]: 66.5 µM
GI50 [2]: 28.7 µM
TGI [2]: > 100 µM
GI50 [3]: 17.3 µM
TGI [3]: 37.9 µM
GI50 [4]: 13.1 µM
TGI [4]: 40.2 µM
GI50 [5]: 18.6 µM
TGI [5]: 37.1 µM
GI50 [6]: 28.4 µM
TGI [6]: > 100 µM
GI50 [7]: 20.6 µM
TGI [7]: 50.7 µM
GI50 [8]: 28.4 µM
TGI [8]: 71.4 µM
GI50 [9]: 23.6 µM
TGI [9]: 70.4 µM
GI50 [10]: 29.5 µM
TGI [10]: 82.6 µM
GI50 [11]: 19.7 µM
TGI [11]: 63.6 µM
GI50 [12]: 22.5 µM
TGI [12]: 61.4 µM
GI50 [13]: 1.89 µM
TGI [13]: 18.5 µM
GI50 [14]: 15.7 µM
TGI [14]: 54.7 µM
GI50 [15]: 15.9 µM
TGI [15]: 59 µM
GI50 [16]: 12.7 µM
TGI [16]: 41.8 µM
GI50 [17]: 20.9 µM
TGI [17]: > 100 µM
GI50 [18]: 4.04 µM
TGI [18]: 18.6 µM
GI50 [19]: 23.8 µM
TGI [19]: 65.4 µM
GI50 [20]: 17.9 µM
TGI [20]: 47.9 µM
GI50 [21]: 26.4 µM
TGI [21]: 94.7 µM
GI50 [22]: 21.8 µM
TGI [22]: 42.5 µM
GI50 [23]: 23.6 µM
TGI [23]: 62.3 µM
GI50 [24]: 22 µM
TGI [24]: 59.4 µM
GI50 [25]: 30.8 µM
TGI [25]: 73.7 µM
GI50 [26]: 34.1 µM
TGI [26]: > 100 µM
GI50 [27]: 15.3 µM
TGI [27]: 66.3 µM
GI50 [28]: 28.5 µM
TGI [28]: 70.1 µM
GI50 [29]: 25.4 µM
TGI [29]: 80.3 µM
GI50 [30]: 27.6 µM
TGI [30]: 74.6 µM
GI50 [31]: 19.6 µM
TGI [31]: 46.7 µM
GI50 [32]: 18.7 µM
TGI [32]: 44.2 µM
GI50 [33]: 14 µM
TGI [33]: 27.3 µM
GI50 [34]: 19.8 µM
TGI [34]: 43.6 µM
GI50 [35]: 44.9 µM
TGI [35]: > 100 µM
GI50 [36]: 29.8 µM
TGI [36]: > 100 µM
GI50 [37]: 32.2 µM
TGI [37]: > 100 µM
GI50 [38]: 25.8 µM
TGI [38]: 68 µM
GI50 [39]: 11.5 µM
TGI [39]: 31.6 µM
GI50 [40]: 13.4 µM
TGI [40]: 31.1 µM
GI50 [41]: 21.9 µM
TGI [41]: 70 µM
GI50 [42]: 28.3 µM
TGI [42]: > 100 µM
GI50 [43]: 5.98 µM
TGI [43]: 71.1 µM
GI50 [44]: 21.1 µM
TGI [44]: 59.7 µM
GI50 [45]: 21.9 µM
TGI [45]: 68.5 µM
GI50 [46]: 15.6 µM
TGI [46]: 43.6 µM
GI50 [47]: 48.3 µM
TGI [47]: > 100 µM
GI50 [48]: 26.2 µM
TGI [48]: 81.6 µM
GI50 [49]: 24.4 µM
TGI [49]: 59.3 µM
GI50 [50]: 5.8 µM
TGI [50]: 83 µM
GI50 [51]: 19.8 µM
TGI [51]: 81.6 µM
GI50 [52]: 29.2 µM
TGI [52]: 81.8 µM
GI50 [53]: 22.2 µM
TGI [53]: 59.5 µM
GI50 [54]: 35.6 µM
TGI [54]: > 100 µM
GI50 [55]: 29.3 µM
TGI [55]: 70.6 µM
